# According to ChEMBL document CHEMBL1123484 (J Med Chem, 1986):
# Tests used:
# [1] = biological target: T1, Folylpolyglutamate synthase, mitochondrial (Mus musculus) (UniProt P48760); experiment: Compound (500 uM folate
# T1 sequence (whole entry): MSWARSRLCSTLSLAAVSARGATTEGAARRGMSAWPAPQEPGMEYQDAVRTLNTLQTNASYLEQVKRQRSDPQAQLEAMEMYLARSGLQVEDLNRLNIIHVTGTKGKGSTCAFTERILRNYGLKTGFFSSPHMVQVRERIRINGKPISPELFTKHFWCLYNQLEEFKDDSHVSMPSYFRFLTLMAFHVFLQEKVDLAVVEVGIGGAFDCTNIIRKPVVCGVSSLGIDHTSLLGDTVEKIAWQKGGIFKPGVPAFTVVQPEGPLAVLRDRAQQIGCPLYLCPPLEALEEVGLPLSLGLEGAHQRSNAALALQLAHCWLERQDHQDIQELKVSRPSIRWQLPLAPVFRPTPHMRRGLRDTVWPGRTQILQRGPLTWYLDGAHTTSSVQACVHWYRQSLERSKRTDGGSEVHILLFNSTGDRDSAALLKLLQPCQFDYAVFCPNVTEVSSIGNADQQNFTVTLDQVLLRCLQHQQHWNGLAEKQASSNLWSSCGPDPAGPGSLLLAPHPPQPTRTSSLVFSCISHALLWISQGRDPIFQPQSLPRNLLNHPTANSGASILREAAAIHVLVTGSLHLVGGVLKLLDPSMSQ
# [2] = test system: L1210 ( R81); experiment: Compound was tested for its ability to inhibit growth of L1210/R81 cells; format: functional, cell-based; conditions: Mus musculus
# [3] = test system: L1210; experiment: Compound was tested for its ability to inhibit growth of L1210 mouse leukemia cells; format: functional, cell-based
# [4] = biological target: T2, Dihydrofolate reductase (Mus musculus, UniProt P00375); experiment: biochemical
# T2 sequence (P00375 whole entry): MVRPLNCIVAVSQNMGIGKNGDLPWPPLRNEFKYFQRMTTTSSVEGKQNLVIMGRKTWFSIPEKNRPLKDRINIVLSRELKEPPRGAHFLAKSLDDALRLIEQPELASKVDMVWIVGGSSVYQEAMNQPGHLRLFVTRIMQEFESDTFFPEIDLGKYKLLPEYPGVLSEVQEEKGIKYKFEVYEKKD
# Description: Compound was tested for its ability to inhibit purified dihydrofolate reductase(DHFR) from L1210/R81 cells
# [5] = biological target: T3, Folylpolyglutamate synthase, mitochondrial (Mus musculus, UniProt P48760); experiment: Compound was tested for its ability to inhibit Folyl-polyglutamate synthase from mouse liver
# T3 sequence (P48760 whole entry): T1 sequence (whole entry)
SMILES,inhibition [1],IC50 [2],IC50 [3],IC50 [4],Ki [5]
CN(Cc1cnc2nc(N)nc(N)c2n1)c1ccc(C(=O)N[C@@H](CCC(=O)O)C(=O)O)cc1 [METHOTREXATE],–,220 µM,–,–,–
Nc1nc(N)c2nc(CNc3ccc(C(=O)N[C@@H](CCC(=O)O)C(=O)O)cc3)cnc2n1 [AMINOPTERIN],–,84 µM,–,–,–
CN(Cc1cnc2nc(N)nc(N)c2n1)c1ccc(C(=O)NC(CN)C(=O)O)cc1 (stereo unspecified),< 10%,405 µM,0.44 µM,0.18 µM,–
CN(Cc1cnc2nc(N)nc(N)c2n1)c1ccc(C(=O)NC(CCN)C(=O)O)cc1 (stereo unspecified),< 10%,290 µM,2.42 µM,0.12 µM,–

# Other lines, results leading:
inhibition [1],IC50 [2],IC50 [3],IC50 [4],Ki [5],SMILES
< 10%,220 µM,0.4 µM,0.065 µM,–,CN(Cc1cnc2nc(N)nc(N)c2n1)c1ccc(C(=O)NC(CCCCN)C(=O)O)cc1 (stereo unspecified)
–,32 µM,1.3 µM,–,0.15 µM,NCCCC(NC(=O)c1ccc(NCc2cnc3nc(N)nc(N)c3n2)cc1)C(=O)O (stereo unspecified)
–,86 µM,1.3 µM,0.16 µM,20.4 µM,CN(Cc1cnc2nc(N)nc(N)c2n1)c1ccc(C(=O)NC(CCCN)C(=O)O)cc1 (stereo unspecified)
